Source: patent US10160726B2, “Quinolone derivatives as antibacterials” (priority 2014, dated 2018)
Converted amounts (≈) assume the structure as drawn. Structures can show the parent of a compound that is named as a salt. Where two headings read alike, the source gives them in different places.

Experiments:
[1] = target: E. coli DNA gyrase (GyrA-B) (Escherichia coli, UniProt P0AES4); experiment: Supercoiling assay of E. coli gyrase; assay type: biochemical
Method: Method 1: Supercoiling Assay of E. Coli Gyrase
Enzymatic activity of E. coli DNA gyrase reconstituted from its purified subunits was assessed by monitoring the introduction of supercoils into the relaxed plasmid pHOT-1 (TopoGEN, TG2035-3). To form the functional gyrase A2B2 heterotetrameric enzyme, equal molar concentrations of the GyrA and GyrB subunits were combined at high protein concentration (500 nM) and incubated on ice for 1 hour prior to assay start in reaction buffer without ATP or the pHOT-1 plasmid. The reaction mixture (25 μl) contained 10 nM enzyme, 10 ng/μl pHOT-1, 1 mM ATP, 35 mM Tris-HCl pH 7.5, 24 mM KCl, 4 mM MgCl2, 2 mM DTT, 1.8 mM spermidine, 6.5% glycerol, and 100 μg/ml bovine serum albumin. The reaction was carried out at 37° C. for 90 minutes and terminated by the addition of 2.5 μl of 10× stop solution (0.9% SDS, 50% glycerol, 0.05% bromophenol blue). […] Gels were stained with ethidium bromide (0.5 μg/ml) for 30 minutes and destained in water for 20 minutes. All gels were analyzed using the BIO-RAD ChemiDocTm XRS+ with Image Lab 3.0 software. The 50% inhibition concentration (IC50) was determined as being the compound concentration at which the supercoiled band was reduced by 50% from the DMSO drug free control (Microsoft Excel 2010 IDBS XLfit, GraftPad Prism 6).

[2] = target: E. coli DNA topoisomerase IV (Topo IV, ParC-E) (Escherichia coli, UniProt P0AFI2); experiment: Decatenation assay of E. coli Topo IV; assay type: biochemical
Method: Method 2: Decatenation Assay of E. Coli Topo IV
Enzymatic activity of the E. coli DNA topoisomerase IV (Topo IV) reconstituted from its purified subunits was monitored by the decatenation of kinetoplast DNA into minicircles (kDNA, TopoGEN, TG2013-3). To form the functional Topo IV C2E2 heterotetrameric enzyme, equal molar concentrations of the ParC and ParE subunits were combined at high protein concentration (500 nM) and incubated on ice for 1 hour prior to assay start in reaction buffer without ATP or the kDNA. […] The reaction was carried out at 37° C. for 2 hours and terminated by the addition of 2.5 μl of 10× stop solution (0.9% SDS, 50% glycerol, 0.05% bromophenol blue). […] Gels were stained with ethidium bromide (0.5 μg/ml) for 30 minutes and distained in water for 20 minutes. All gels were analyzed using the BIO-RAD ChemiDoc™ XRS^+ with Image Lab 3.0 software. The 50% inhibitor concentration (IC50) was determined as being the compound concentration at which the presence of the kDNA minicircles in the gel was reduced by 50% from the DMSO drug free control (Microsoft Excel 2010 IDBS XLfit, Graph Pad Prism 6).

[3] = tested on: E. coli ATCC 25922 (NB27001); experiment: MIC, broth microdilution (CLSI); assay type: cell-based; settings: Escherichia coli, ATCC25922; E. coli ATCC 25922; 35° C., 20 hours; read-out: Antibacterial activity (MIC) NB27001
[4] = tested on: E. coli NB27177 (efflux deficient CGSC 11430, ΔtolC732::kan); experiment: microbe, parasite or virus in culture; assay type: cell-based; settings: Escherichia coli, 20 h, read-out: Antibacterial activity (MIC) NB27177
[5] = tested on: P. aeruginosa NB52019 (wild-type PAO1); experiment: MIC, broth microdilution (CLSI); assay type: cell-based; settings: Pseudomonas aeruginosa, read-out: Antibacterial activity (MIC) NB52019
[6] = tested on: P. aeruginosa NB52023 (efflux deficient K1542, ΔmexX ΔmexB); experiment: microbe, parasite or virus in culture; assay type: cell-based; settings: Pseudomonas aeruginosa, 20 h, read-out: Antibacterial activity (MIC) NB52023
[7] = tested on: P. aeruginosa NB52023-CDK0006 (gyrA T83I, parC S87L); experiment: microbe, parasite or virus in culture; assay type: cell-based; settings: Pseudomonas aeruginosa, 20 h, read-out: Antibacterial activity (MIC) NB52023-CDK0006
[8] = tested on: S. aureus ATCC 29213 (NB01001); experiment: MIC, broth microdilution (CLSI); assay type: cell-based; settings: Staphylococcus aureus, ATCC29213; S. aureus ATCC 29213; 35° C., 20 hours; read-out: Antibacterial activity (MIC) NB01001
[9] = tested on: S. aureus NB01006-AVR005 (gyrA S84L, grlA S80F, grlB E471K); experiment: microbe, parasite or virus in culture; assay type: cell-based; settings: Staphylococcus aureus, 20 h, read-out: Antibacterial activity (MIC) NB01006-AVR005
[10] = supercoiling activity of E. coli gyrase (GyrA-B), read-out: GyrA-B IC50 (Enzyme)
[11] = decatenation activity of E. coli topoIV (ParC-E), read-out: ParC-E IC50 (Enzyme)
[12] = P. aeruginosa wild-type PAO1, 35° C., 20 hours

Chain of E. coli DNA topoisomerase IV (Topo IV, ParC-E) (P0AFI2 whole entry): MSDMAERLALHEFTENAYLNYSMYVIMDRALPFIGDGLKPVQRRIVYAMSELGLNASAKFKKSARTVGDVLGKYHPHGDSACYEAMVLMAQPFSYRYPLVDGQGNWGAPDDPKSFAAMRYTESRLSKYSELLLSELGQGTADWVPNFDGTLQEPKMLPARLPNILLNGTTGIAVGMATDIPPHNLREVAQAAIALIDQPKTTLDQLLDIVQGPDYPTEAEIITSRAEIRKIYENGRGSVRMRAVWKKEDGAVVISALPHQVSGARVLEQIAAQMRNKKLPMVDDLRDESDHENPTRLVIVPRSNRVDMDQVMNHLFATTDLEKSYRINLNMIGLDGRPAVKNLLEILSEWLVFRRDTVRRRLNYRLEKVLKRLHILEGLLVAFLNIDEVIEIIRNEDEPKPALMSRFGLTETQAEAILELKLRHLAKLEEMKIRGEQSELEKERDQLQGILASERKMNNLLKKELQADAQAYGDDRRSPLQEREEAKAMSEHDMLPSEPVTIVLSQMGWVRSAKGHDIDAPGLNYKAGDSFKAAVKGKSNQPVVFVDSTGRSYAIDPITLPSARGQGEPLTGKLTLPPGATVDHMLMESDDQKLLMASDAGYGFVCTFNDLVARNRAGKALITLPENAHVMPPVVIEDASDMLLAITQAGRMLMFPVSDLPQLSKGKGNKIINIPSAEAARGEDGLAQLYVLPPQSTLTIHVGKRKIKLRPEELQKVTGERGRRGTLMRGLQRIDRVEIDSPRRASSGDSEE
Chain of E. coli DNA topoisomerase IV (Topo IV, ParC-E) (P20083 whole entry, further chain): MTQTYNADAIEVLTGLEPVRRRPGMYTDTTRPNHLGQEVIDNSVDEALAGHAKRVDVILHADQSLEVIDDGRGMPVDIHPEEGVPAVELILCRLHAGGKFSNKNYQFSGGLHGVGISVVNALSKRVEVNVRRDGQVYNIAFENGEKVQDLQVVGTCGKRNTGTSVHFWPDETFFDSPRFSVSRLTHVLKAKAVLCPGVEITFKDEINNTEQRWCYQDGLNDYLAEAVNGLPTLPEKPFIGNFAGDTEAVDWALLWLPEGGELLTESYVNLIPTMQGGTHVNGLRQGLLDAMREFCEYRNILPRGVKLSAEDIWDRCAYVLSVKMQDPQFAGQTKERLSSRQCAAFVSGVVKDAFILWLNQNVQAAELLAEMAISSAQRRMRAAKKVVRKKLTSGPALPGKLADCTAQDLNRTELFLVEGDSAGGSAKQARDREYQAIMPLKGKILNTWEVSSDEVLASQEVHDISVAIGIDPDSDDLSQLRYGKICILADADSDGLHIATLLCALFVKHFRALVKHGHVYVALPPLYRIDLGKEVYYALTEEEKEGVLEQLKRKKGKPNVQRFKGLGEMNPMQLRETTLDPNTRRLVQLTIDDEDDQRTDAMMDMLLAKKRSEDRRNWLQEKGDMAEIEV
Chain of E. coli DNA gyrase (GyrA-B) (P0AES4 whole entry): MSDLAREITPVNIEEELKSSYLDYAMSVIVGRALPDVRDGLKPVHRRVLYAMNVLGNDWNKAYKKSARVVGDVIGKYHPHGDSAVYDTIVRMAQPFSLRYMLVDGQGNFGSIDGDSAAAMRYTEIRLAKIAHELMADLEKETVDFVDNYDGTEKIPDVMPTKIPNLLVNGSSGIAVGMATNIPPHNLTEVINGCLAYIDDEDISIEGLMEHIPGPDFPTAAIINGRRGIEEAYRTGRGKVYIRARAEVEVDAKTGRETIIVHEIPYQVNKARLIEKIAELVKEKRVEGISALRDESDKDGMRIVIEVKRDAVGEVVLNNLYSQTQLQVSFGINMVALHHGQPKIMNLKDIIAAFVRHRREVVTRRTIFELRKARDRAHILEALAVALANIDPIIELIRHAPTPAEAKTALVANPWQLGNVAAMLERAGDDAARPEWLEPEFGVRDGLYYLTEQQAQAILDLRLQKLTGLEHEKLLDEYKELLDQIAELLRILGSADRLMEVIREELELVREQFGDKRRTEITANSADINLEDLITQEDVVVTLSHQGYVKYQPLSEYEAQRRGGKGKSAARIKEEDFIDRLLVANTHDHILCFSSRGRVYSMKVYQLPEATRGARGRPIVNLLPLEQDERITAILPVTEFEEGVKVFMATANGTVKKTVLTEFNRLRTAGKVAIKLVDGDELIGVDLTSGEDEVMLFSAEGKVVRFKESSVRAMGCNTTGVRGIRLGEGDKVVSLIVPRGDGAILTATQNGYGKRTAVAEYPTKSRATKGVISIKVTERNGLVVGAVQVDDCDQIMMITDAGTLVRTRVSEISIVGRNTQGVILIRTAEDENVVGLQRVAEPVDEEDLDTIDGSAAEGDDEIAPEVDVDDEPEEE

SMILES	IC50 [1, 10] [nM]	IC50 [2, 11] [nM]	MIC [3] [µg/mL]	MIC [4] [µg/mL]	MIC ([5]; PAO1, 20 h) [µg/mL]	MIC [6] [µg/mL]	MIC [7] [µg/mL]	MIC [8] [µg/mL]	MIC [9] [µg/mL]	IC50 [1] [nM]	IC50 [2] [nM]	MIC [5, 12] [µg/mL]
Cc1c(N2CC[C@@H]([C@H](C)N)C2)c(F)cc2c(C(N)=O)cc(=O)n(C3CC3)c12 [Example 34, 7-((R)-3-((S)-1-aminoethyl)pyrrolidin-1-yl)-1-cyclopropyl-6-fluoro-8-methyl-2-oxo-1,2-dihydroquinoline-4-carboxamide]	440	5140	32 (≈ 85.9 µM)	2 (≈ 5.37 µM)	> 32	16 (≈ 43 µM)	16 (≈ 43 µM)	4 (≈ 10.7 µM)	4 (≈ 10.7 µM)			
Cc1c(N2CC[C@@H]([C@H](C)N)C2)c(F)cc2c(CN)cc(=O)n(C3CC3)c12 [Example 45, 7-((R)-3-((S)-1-aminoethyl)pyrrolidin-1-yl)-4-(aminomethyl)-1-cyclopropyl-6-fluoro-8-methylquinolin-2(1H)-one]	< 100	240	1 (≈ 2.79 µM)	0.06 (≈ 0.167 µM)	2 (≈ 5.58 µM)	0.5 (≈ 1.39 µM)	2 (≈ 5.58 µM)	0.25 (≈ 0.697 µM)	0.5 (≈ 1.39 µM)			
Cc1c(N2CC[C@@H]([C@H](C)N)C2)c(F)cc2c(C(=O)NO)cc(=O)n(C3CC3)c12 [Example 43, 7-((R)-3-((S)-1-aminoethyl)pyrrolidin-1-yl)-1-cyclopropyl-6-fluoro-N-hydroxy-8-methyl-2-oxo-1,2-dihydroquinoline-4-carboxamide]	560	3350	32 (≈ 82.4 µM)	4 (≈ 10.3 µM)	> 32	> 32	> 32	8 (≈ 20.6 µM)	16 (≈ 41.2 µM)			
Cc1c(N2CC[C@@H]([C@H](C)N)C2)ccc2c(OCCN(C)C)cc(=O)n(C3CC3)c12 [Example 74, 7-((R)-3-((S)-1-aminoethyl)pyrrolidin-1-yl)-1-cyclopropyl-4-(2-(dimethylamino)ethoxy)-8-methylquinolin-2(1H)-one TFA salt]	310	240	8	0.25	32	8	16	1	2			
Cc1c(N2CC[C@@H]([C@H](C)N)C2)c(F)cc2ccc(=O)n(C3CC3)c12.Cl [Example 9.1, 7-((R)-3-((S)-1-aminoethyl)pyrrolidin-1-yl)-1-cyclopropyl-6-fluoro-8-methylquinolin-2(1H)-one hydrochloride salt]			1	< 0.03		4	8	0.06	0.06	1300	9910	16
C#Cc1cc(=O)n(C2CC2)c2c(C)c(N3CC[C@@H]([C@H](C)N)C3)c(F)cc12 [Example 25, 7-((R)-3-((S)-1-aminoethyl)pyrrolidin-1-yl)-1-cyclopropyl-4-ethynyl-6-fluoro-8-methylquinolin-2(1H)-one]	1030	6460	4 (≈ 11.3 µM)	0.06 (≈ 0.17 µM)	8 (≈ 22.6 µM)	2 (≈ 5.66 µM)	4 (≈ 11.3 µM)	0.06 (≈ 0.17 µM)	< 0.03			
Cc1c(N2CC[C@@H]([C@H](C)N)C2)ccc2ccc(=O)n(C3CC3)c12 [Example 76, 7-((R)-3-((S)-1-aminoethyl)pyrrolidin-1-yl)-1-cyclopropyl-8-methylquinolin-2(1H)-one trifluoroacetic acid salt]	6800	38500	4	0.125	32	8	16	0.25	0.5			
Cc1c(N2CCNCC2)c(F)cc2ccc(=O)n(C3CC3)c12 [Example 9.3, 1-Cyclopropyl-6-fluoro-8-methyl-7-(piperazin-1-yl)quinolin-2(1H)-one]			4 (≈ 13.3 µM)	0.25 (≈ 0.83 µM)		16 (≈ 53.1 µM)	16 (≈ 53.1 µM)	16 (≈ 53.1 µM)	16 (≈ 53.1 µM)	11900	> 100000	32 (≈ 106 µM)
Cc1c(-c2ccc(N)nc2)c(F)cc2ccc(=O)n(C3CC3)c12 [Example 10, 7-(6-Aminopyridin-3-yl)-1-cyclopropyl-6-fluoro-8-methylquinolin-2(1H)-one]	1200	1930	4 (≈ 12.9 µM)	< 0.03	> 32	4 (≈ 12.9 µM)	8 (≈ 25.9 µM)	0.25 (≈ 0.808 µM)	0.25 (≈ 0.808 µM)			
Cc1c(N2CC[C@@H]([C@H](C)N)C2)ccc2cc(O)c(=O)n(C3CC3)c12 [Example 79, 7-((R)-3-((S)-1-aminoethyl)pyrrolidin-1-yl)-1-cyclopropyl-3-hydroxy-8-methylquinolin-2(1H)-one TFA salt]	2440	1840	8	1	> 32	> 32	> 32	2	8			
Cc1c(N2CC[C@@H]([C@H](C)N)C2)c(F)cc2c(C#N)cc(=O)n(C3CC3)c12 [Example 27, 7-((R)-3-((S)-1-aminoethyl)pyrrolidin-1-yl)-1-cyclopropyl-6-fluoro-8-methyl-2-oxo-1,2-dihydroquinoline-4-carbonitrile]	130	590	1 (≈ 2.82 µM)	< 0.03	4 (≈ 11.3 µM)	1 (≈ 2.82 µM)	2 (≈ 5.64 µM)	< 0.03	< 0.03			
